Experimental data published in patent US20240027453A1, “METHOD FOR DETECTION AND QUANTITATIVE MONITORING OF INFECTIONS WITH HERPESVIRUSES” (The Trustees of Princeton University, priority 2020, published 2024).
Where two headings read alike, the source gives them in different places.

Tested on: HCMV
Format: cell-based
In short: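 Viral protein levels come from parallel reaction monitoring on a Q Exactive HF: trypsin digests of infected-cell lysates, quantified as summed transition areas, normalized to host control peptides, averaged across peptides per protein. Cells were MRC5 fibroblasts, infected at MOI 3 (HSV-1 or HCMV) after 12 h compound pretreatment, with re-dosing every 24 h.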
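For IR12 (P16810) protein level in this document: each peptide scaled to its average across all runs.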
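For TRX1 (P16783) protein level in this document: each peptide scaled to its average across all runs.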
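For UL24 (P16760) protein level in this document: each peptide scaled to its average across all runs.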
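For gN (P16795) protein level in this document: each peptide scaled to its average across all runs.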

Nc1c(S(=O)(=O)c2ccccc2)c2nc3ccccc3nc2n1-c1ccc(F)cc1 [CAY10602]
UL117 (P16770) protein level (timepoint 96, L): 0.3951 | gH (P12824) protein level (timepoint 96, L): 0.2835 | gL (P16832) protein level (timepoint 96, L): 0.2623 | gM (P16733) protein level (timepoint 96, L): 0.2653 | gN (P16795) protein level (timepoint 96, L): 0.3 | IR10 (P16808) protein level (timepoint 96, LL): 0.2057 | IR12 (P16810) protein level (timepoint 96, LL): 0.691 | TRM3 (P16732) protein level (timepoint 96, LL): 0.1638 | TRX1 (P16783) protein level (timepoint 96, LL): 0.107 | TRX2 (P16728) protein level (timepoint 96, LL): 0.1423 | UL24 (P16760) protein level (timepoint 96, LL): 0.2363 | UL40 (P16780) protein level (timepoint 96, LL): 0.5384 | UL47 (P16784) protein level (timepoint 96, LL): 0.2331 | UL49 (P16786) protein level (timepoint 96, LL): 0.2651 | UL69 (P16749) protein level (timepoint 96, LL): 0.3508 | UL70 (P17149) protein level (timepoint 96, LL): 0.6104 | UL83 (P06725) protein level (timepoint 96, LL): 0.1002 | UL132 (P69338) protein level (timepoint 96, LL): 0.23 | US15 (P09718) protein level (timepoint 96, LL): 0.4576 | CVC2 (P16726) protein level (timepoint 120, DE): 0.2864 | DBP (P17147) protein level (timepoint 120, DE): 1.237 | HELI (P16736) protein level (timepoint 120, DE): 0.9924 | IR01 (P09710) protein level (timepoint 120, DE): 0.5584 | NEC1 (P16794) protein level (timepoint 120, DE): 0.2446 | NEC2 (P16791) protein level (timepoint 120, DE): 0.5195 | RIR1 (P16782) protein level (timepoint 120, DE): 0.4577 | TRM1 (P16724) protein level (timepoint 120, DE): 0.5809 | UL4 (P17146) protein level (timepoint 120, DE): 0.3635 | UL26 (P16762) protein level (timepoint 120, DE): 0.7327 | UL32 (P08318) protein level (timepoint 120, DE): 0.3617 | UL34 (P16812) protein level (timepoint 120, DE): 0.476 | UL35 (P16766) protein level (timepoint 120, DE): 0.2648 | UL38 (P16779) protein level (timepoint 120, DE): 0.7917 | UL44 (P16790) protein level (timepoint 120, DE): 0.3691 | UL48 (P16785) protein level (timepoint 120, DE): 0.6239 | UL54 (P08546) protein level (timepoint 120, DE): 1.076 | UL71 (P16823) protein level (timepoint 120, DE): 0.6451 | UL78 (P16751) protein level (timepoint 120, DE): 0.6099 | UL84 (P16727) protein level (timepoint 120, DE): 0.5628 | UL95 (P16801) protein level (timepoint 120, DE): 0.6017 | UL96 (P16787) protein level (timepoint 120, DE): 0.8056 | UL97 (P16788) protein level (timepoint 120, DE): 0.6064 | UL98 (P16789) protein level (timepoint 120, DE): 0.7315 | UL102 (P16827) protein level (timepoint 120, DE): 1.128 | UL104 (P16735) protein level (timepoint 120, DE): 0.5969 | UL112/UL113 (P17151) protein level (timepoint 120, DE): 0.6787 | UL114 (P16769) protein level (timepoint 120, DE): 0.9011 | UL119/UL118 (P16739) protein level (timepoint 120, DE): 0.9064 | UL128 (P16837) protein level (timepoint 120, DE): 0.537 | US8 (P09730) protein level (timepoint 120, DE): 0.7858 | US9 (P09729) protein level (timepoint 120, DE): 0.8529 | US12 (P09721) protein level (timepoint 120, DE): 0.4687 | US13 (P09720) protein level (timepoint 120, DE): 0.889 | US14 (P09719) protein level (timepoint 120, DE): 0.6652 | US18 (P69334) protein level (timepoint 120, DE): 1.01 | US22 (P09722) protein level (timepoint 120, DE): 0.7763 | US23 (P09701) protein level (timepoint 120, DE): 0.7758 | US24 (P09700) protein level (timepoint 120, DE): 0.8183 | US34 (P09709) protein level (timepoint 120, DE): 0.4168 | gB (P06473) protein level (timepoint 120, DE): 0.6582 | IRS1 (P09715) protein level (timepoint 120, IE): 0.8786 | TRS1 (P09695) protein level (timepoint 120, IE): 0.7933 | UL13 (P16755) protein level (timepoint 120, IE): 0.4263 | UL36 (P16767) protein level (timepoint 120, IE): 0.8112 | UL37 (P16778) protein level (timepoint 120, IE): 0.8715 | UL122 (P19893) protein level (timepoint 120, IE): 0.4332 | UL123 (P13202) protein level (timepoint 120, IE): 0.6795 | CVC1 (P16799) protein level (timepoint 120, L): 0.5173 | GO (P16750) protein level (timepoint 120, L): 0.4236 | IR11 (P16809) protein level (timepoint 120, L): 1.205 | MCP (P16729) protein level (timepoint 120, L): 0.4497 | SCP (Q7M6N6) protein level (timepoint 120, L): 0.3169 | TRM2 (P16792) protein level (timepoint 120, L): 0.4883 | UL22A (P16845) protein level (timepoint 120, L): 0.9462 | UL25 (P16761) protein level (timepoint 120, L): 0.5081 | UL29 (P16764) protein level (timepoint 120, L): 0.8148 | UL30 (P16765) protein level (timepoint 120, L): 0.4064 | UL31 (P16848) protein level (timepoint 120, L): 0.5275 | UL43 (P16781) protein level (timepoint 120, L): 0.2294 | UL52 (P16793) protein level (timepoint 120, L): 0.6161 | UL76 (P16725) protein level (timepoint 120, L): 0.366 | UL79 (P16752) protein level (timepoint 120, L): 0.3998 | UL80 (P16753) protein level (timepoint 120, L): 0.5912 | UL82 (P06726) protein level (timepoint 120, L): 0.5561 | UL87 (P16730) protein level (timepoint 120, L): 0.3281 | UL88 (P16731) protein level (timepoint 120, L): 0.6339 | UL94 (P16800) protein level (timepoint 120, L): 0.5803 | UL99 (P13200) protein level (timepoint 120, L): 0.4749 | UL103 (P16734) protein level (timepoint 120, L): 0.5208 | UL117 (P16770) protein level (timepoint 120, L): 0.5442 | gH (P12824) protein level (timepoint 120, L): 0.5849 | gL (P16832) protein level (timepoint 120, L): 0.5768 | gM (P16733) protein level (timepoint 120, L): 0.6508 | gN (P16795) protein level (timepoint 120, L): 0.6429 | DUT (P16824) protein level (timepoint 120, LL): 0.5447 | IR10 (P16808) protein level (timepoint 120, LL): 0.4495 | IR12 (P16810) protein level (timepoint 120, LL): 0.797 | TRM3 (P16732) protein level (timepoint 120, LL): 0.383 | TRX1 (P16783) protein level (timepoint 120, LL): 0.3398 | TRX2 (P16728) protein level (timepoint 120, LL): 0.4401 | UL24 (P16760) protein level (timepoint 120, LL): 0.5907 | UL40 (P16780) protein level (timepoint 120, LL): 0.5612 | UL47 (P16784) protein level (timepoint 120, LL): 0.5287 | UL49 (P16786) protein level (timepoint 120, LL): 0.5619 | UL69 (P16749) protein level (timepoint 120, LL): 0.6101 | UL70 (P17149) protein level (timepoint 120, LL): 0.846 | UL83 (P06725) protein level (timepoint 120, LL): 0.4091 | UL132 (P69338) protein level (timepoint 120, LL): 0.4011 | US15 (P09718) protein level (timepoint 120, LL): 0.6187
